Assays:
[1] = target: T1, 5-hydroxytryptamine receptor 1A (Homo sapiens, UniProt P08908); test: Inhibition of 5HT1A receptor
T1 sequence (P08908 whole entry): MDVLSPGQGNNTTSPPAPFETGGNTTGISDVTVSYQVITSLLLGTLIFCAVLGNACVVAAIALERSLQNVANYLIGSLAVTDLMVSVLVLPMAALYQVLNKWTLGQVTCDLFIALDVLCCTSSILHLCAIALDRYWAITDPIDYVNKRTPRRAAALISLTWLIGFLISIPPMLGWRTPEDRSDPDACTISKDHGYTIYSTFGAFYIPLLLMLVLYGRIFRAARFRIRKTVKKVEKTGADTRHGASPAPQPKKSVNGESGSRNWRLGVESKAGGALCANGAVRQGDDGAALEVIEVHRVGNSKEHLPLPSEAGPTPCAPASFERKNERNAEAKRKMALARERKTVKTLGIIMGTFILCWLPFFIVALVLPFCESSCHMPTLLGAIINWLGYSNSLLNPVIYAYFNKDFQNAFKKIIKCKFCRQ

[2] = target: 5-hydroxytryptamine receptor 7 (Homo sapiens, UniProt P34969); test: Binding affinity to 5HT7 receptor
5-hydroxytryptamine receptor 7, sequence (P34969 whole entry): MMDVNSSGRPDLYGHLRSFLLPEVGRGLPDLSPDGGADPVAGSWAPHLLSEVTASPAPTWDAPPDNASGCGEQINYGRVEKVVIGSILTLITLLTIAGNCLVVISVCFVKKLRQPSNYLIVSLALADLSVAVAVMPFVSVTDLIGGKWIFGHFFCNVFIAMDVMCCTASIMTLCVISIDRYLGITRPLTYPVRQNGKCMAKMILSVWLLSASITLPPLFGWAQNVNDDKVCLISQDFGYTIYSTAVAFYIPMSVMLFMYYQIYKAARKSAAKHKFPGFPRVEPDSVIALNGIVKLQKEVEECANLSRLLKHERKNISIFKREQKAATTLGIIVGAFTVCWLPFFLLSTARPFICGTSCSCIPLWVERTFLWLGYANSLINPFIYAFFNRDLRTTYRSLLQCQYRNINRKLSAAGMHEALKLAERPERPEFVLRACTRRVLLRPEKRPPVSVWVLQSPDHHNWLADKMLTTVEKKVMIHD

Structure (SMILES)	IC50 [1] [nM]	Ki [2] [nM]
COc1ccc2[nH]cc(CCCCN3CC=C(c4ccccc4)CC3)c2c1	20	
O=C1Nc2cccc3c2C1(CCCCN1CC=C(c2ccccc2)CC1)CCC3 (racemic)		3.31
O=C1Nc2cccc3c2C1(CCCCN1CCN(c2ccccc2)CC1)CCC3 (racemic)		2.14
Oc1ccc2[nH]cc(CCCCN3CC=C(c4ccccc4)CC3)c2c1 [ROXINDOLE]	0.8	

From ChEMBL document CHEMBL1158508, “Molecular modeling study of 4-phenylpiperazine and 4-phenyl-1,2,3,6-tetrahydropyridine derivatives: a new step towards the design of high-affinity 5-HT1A ligands” (Bioorg Med Chem Lett, 2010)
